What was measured:
Assay in all cases: Premier Screen kinase activity screening (33P ATP filter binding)
Assay type in all cases: biochemical
TrkA = biological target: T1, TrkA (Homo sapiens, UniProt P04629); conditions: 10 μM SCO-101, mean of assay duplicates, read-out: Kinase activity (percentage of DMSO control)
T1 construct: purchased MRC in Dundee (Premier Screen service)
From the text: (§1) The kinase activity screening was done at MRC in Dundee. The screen was a so-called “Premier Screen” with 140 kinases. More specific information can be found here: http://www.kinase-screen.mrc.ac.uk/services/premier-screen
(§2) The method is based on a radioactive filter binding assay using 33P ATP (Hastie, et al 2006. Nat Protoc. 2006; 1(2):968-71; Bain, et al 2007. Biochem J. 2007 Dec. 15; 408(3):297-315). This method is sensitive, accurate and provides a direct measure of kinase enzyme activity. A concentration of 10 μM SCO-101 was used.
(§3) In the table below, the data is portrayed as the mean percentage activity of assay duplicates and a standard deviation. These percentage activities were calculated in comparison to DMSO controls. 10 μM SCO-101 reduced the activity of SRPK1 to 6% of the DMSO control.

PDGFRA = biological target: T2, PDGFRA (Homo sapiens, UniProt P16234); conditions: 10 μM SCO-101, mean of assay duplicates, read-out: Kinase activity (percentage of DMSO control)
T2 construct: purchased MRC in Dundee (Premier Screen service)
From the text: as §1, §2, §3

IKKb = biological target: T3, IKKb (Homo sapiens, UniProt O14920); conditions: 10 μM SCO-101, mean of assay duplicates, read-out: Kinase activity (percentage of DMSO control)
T3 construct: MRC Dundee (screening service)
From the text: as §1, §2, §3

MARK4 = biological target: T4, MARK4 (Homo sapiens, UniProt Q96L34); conditions: 10 μM SCO-101, mean of assay duplicates, read-out: Kinase activity (percentage of DMSO control)
T4 construct: MRC in Dundee (screening service)
From the text: as §1, §2, §3

TAO1 = conditions: 10 μM SCO-101, mean of assay duplicates
From the text: as §1, §2, §3

Aurora B = biological target: T5, Aurora B (Homo sapiens, UniProt Q96GD4); conditions: 10 μM SCO-101, mean of assay duplicates, read-out: Kinase activity (percentage of DMSO control)
T5 construct: purchased MRC in Dundee (Premier Screen service)
T5 sequence (Q96GD4 whole entry): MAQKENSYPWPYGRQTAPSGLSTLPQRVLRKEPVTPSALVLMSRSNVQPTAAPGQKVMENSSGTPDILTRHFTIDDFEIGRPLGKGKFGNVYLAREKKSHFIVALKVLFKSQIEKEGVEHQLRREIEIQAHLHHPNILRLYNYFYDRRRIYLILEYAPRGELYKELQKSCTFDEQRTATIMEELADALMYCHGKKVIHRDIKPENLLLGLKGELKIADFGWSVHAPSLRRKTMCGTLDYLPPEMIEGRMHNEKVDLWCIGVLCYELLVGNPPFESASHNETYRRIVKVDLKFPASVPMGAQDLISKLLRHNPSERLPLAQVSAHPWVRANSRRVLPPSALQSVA
From the text: as §1, §2, §3

WNK1 = biological target: T6, WNK1 (Homo sapiens, UniProt Q9H4A3); conditions: 10 μM SCO-101, mean of assay duplicates, read-out: Kinase activity (percentage of DMSO control)
T6 construct: purchased MRC Dundee, Premier Screen (contract screening service)
T6 sequence (Q9H4A3 whole entry, species assumed): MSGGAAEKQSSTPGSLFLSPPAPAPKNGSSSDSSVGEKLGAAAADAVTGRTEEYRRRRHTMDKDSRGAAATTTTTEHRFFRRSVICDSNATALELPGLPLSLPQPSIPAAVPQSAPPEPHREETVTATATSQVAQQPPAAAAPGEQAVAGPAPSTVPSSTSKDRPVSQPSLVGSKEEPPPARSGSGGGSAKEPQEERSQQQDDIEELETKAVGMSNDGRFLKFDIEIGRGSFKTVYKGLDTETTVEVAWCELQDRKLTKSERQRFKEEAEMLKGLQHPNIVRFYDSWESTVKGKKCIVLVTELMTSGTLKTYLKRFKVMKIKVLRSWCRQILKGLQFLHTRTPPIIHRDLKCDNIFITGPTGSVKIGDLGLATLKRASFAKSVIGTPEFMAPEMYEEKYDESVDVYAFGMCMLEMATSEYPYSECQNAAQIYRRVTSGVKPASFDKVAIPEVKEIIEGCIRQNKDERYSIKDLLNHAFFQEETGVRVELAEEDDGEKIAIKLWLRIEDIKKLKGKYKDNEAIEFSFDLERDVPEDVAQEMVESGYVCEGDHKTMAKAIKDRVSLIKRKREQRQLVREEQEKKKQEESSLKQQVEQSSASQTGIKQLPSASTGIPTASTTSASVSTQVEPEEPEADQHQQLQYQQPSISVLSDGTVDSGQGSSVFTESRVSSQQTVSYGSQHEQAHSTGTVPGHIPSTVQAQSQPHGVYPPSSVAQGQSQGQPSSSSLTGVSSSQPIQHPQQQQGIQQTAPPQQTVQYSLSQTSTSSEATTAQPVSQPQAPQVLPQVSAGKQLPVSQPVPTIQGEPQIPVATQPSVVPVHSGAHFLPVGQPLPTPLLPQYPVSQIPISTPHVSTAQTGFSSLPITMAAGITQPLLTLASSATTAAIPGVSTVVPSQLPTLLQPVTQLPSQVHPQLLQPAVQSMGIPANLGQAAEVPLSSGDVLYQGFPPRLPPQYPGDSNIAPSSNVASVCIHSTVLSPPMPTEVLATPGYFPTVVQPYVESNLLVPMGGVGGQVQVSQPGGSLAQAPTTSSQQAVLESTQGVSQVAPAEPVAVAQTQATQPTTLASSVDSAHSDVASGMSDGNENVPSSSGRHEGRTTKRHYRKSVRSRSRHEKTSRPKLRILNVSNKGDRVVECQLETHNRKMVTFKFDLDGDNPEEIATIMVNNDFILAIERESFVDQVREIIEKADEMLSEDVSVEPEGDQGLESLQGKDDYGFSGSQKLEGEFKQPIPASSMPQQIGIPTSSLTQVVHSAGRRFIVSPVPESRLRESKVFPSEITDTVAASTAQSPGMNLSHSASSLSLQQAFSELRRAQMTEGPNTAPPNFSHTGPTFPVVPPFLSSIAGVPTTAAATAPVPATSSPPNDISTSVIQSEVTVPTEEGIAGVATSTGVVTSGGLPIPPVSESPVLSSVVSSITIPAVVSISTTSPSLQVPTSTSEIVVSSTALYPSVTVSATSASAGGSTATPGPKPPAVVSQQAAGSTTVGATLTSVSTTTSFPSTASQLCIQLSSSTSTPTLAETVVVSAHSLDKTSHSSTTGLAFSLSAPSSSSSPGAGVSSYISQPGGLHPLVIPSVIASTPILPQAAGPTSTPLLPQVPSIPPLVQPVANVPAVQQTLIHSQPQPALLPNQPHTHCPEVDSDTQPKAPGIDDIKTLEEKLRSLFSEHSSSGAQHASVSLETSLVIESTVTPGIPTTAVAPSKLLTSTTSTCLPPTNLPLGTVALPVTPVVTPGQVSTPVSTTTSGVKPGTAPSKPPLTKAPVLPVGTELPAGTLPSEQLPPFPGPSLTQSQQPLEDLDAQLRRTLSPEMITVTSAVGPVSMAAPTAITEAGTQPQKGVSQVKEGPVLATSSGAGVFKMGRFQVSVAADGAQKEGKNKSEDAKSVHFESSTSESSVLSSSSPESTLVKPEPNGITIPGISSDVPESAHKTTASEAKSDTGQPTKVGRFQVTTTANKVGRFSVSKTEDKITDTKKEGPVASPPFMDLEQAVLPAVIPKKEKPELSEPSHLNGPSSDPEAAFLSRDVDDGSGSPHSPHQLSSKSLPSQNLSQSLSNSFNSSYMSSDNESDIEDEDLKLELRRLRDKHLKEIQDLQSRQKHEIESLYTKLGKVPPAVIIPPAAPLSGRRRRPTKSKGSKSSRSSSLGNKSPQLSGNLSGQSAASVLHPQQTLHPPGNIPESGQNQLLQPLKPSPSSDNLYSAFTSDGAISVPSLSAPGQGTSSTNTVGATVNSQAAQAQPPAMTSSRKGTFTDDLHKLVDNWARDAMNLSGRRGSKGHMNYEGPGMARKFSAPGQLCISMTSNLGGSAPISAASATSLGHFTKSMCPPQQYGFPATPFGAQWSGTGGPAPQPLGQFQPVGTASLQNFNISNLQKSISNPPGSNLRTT
From the text: as §1, §2, §3

MARK2 = biological target: T7, MARK2 (Homo sapiens, UniProt Q7KZI7); conditions: 10 μM SCO-101, mean of assay duplicates, read-out: Kinase activity (percentage of DMSO control)
T7 construct: MRC Dundee (screening service)
From the text: as §1, §2, §3

CDK2-Cyclin A = CDK2-Cyclin A (Homo sapiens, UniProt P24941); conditions: 10 μM SCO-101, mean of assay duplicates, read-out: Kinase activity (percentage of DMSO control)
From the text: as §1, §2, §3

JNK2 = biological target: T8, JNK2 (Homo sapiens, UniProt P45984); conditions: 10 μM SCO-101, mean of assay duplicates, read-out: Kinase activity (percentage of DMSO control)
T8 construct: purchased MRC Dundee, Premier Screen (contract screening service)
From the text: as §1, §2, §3

PHK = conditions: 10 μM SCO-101, mean of assay duplicates
From the text: as §1, §2, §3

EPH-A4 = biological target: T9, EPH-A4 (Homo sapiens, UniProt P54764); conditions: 10 μM SCO-101, mean of assay duplicates, read-out: Kinase activity (percentage of DMSO control)
T9 construct: MRC Dundee (screening service)
From the text: as §1, §2, §3

PKCγ = biological target: T10, PKCγ (Homo sapiens, UniProt P05129); conditions: 10 μM SCO-101, mean of assay duplicates, read-out: Kinase activity (percentage of DMSO control)
T10 construct: MRC Dundee (screening service)
From the text: as §1, §2, §3

PKCz = biological target: T11, PKCz (Homo sapiens, UniProt Q05513); conditions: 10 μM SCO-101, mean of assay duplicates, read-out: Kinase activity (percentage of DMSO control)
T11 construct: MRC Dundee (screening service)
From the text: as §1, §2, §3

PIM3 = biological target: T12, PIM3 (Homo sapiens, UniProt Q86V86); conditions: 10 μM SCO-101, mean of assay duplicates, read-out: Kinase activity (percentage of DMSO control)
T12 construct: purchased MRC in Dundee (Premier Screen service)
From the text: as §1, §2, §3

Aurora A = biological target: T13, Aurora A (Homo sapiens, UniProt O14965); conditions: 10 μM SCO-101, mean of assay duplicates, read-out: Kinase activity (percentage of DMSO control)
T13 construct: MRC in Dundee (screening service)
From the text: as §1, §2, §3

HIPK2 = biological target: T14, HIPK2 (Homo sapiens, UniProt Q9H2X6); conditions: 10 μM SCO-101, mean of assay duplicates, read-out: Kinase activity (percentage of DMSO control)
T14 construct: purchased MRC in Dundee (Premier Screen service)
From the text: as §1, §2, §3

OSR1 = biological target: T15, OSR1 (Homo sapiens, UniProt O95747); conditions: 10 μM SCO-101, mean of assay duplicates, read-out: Kinase activity (percentage of DMSO control)
T15 construct: MRC in Dundee (screening service)
From the text: as §1, §2, §3

ERK8 = biological target: T16, ERK8 (Homo sapiens, UniProt Q8TD08); conditions: 10 μM SCO-101, mean of assay duplicates, read-out: Kinase activity (percentage of DMSO control)
T16 construct: MRC in Dundee (screening service)
From the text: as §1, §2, §3

PKA = biological target: T17, PKA (Homo sapiens, UniProt P17612); conditions: 10 μM SCO-101, mean of assay duplicates, read-out: Kinase activity (percentage of DMSO control)
T17 construct: purchased MRC Dundee, Premier Screen (contract screening service)
From the text: as §1, §2, §3

MPSK1 = MPSK1 (Homo sapiens, UniProt O75716); conditions: 10 μM SCO-101, mean of assay duplicates, read-out: Kinase activity (percentage of DMSO control)
From the text: as §1, §2, §3

IGF-1R = biological target: T18, IGF-1R (Homo sapiens, UniProt P08069); conditions: 10 μM SCO-101, mean of assay duplicates, read-out: Kinase activity (percentage of DMSO control)
T18 construct: purchased MRC in Dundee (Premier Screen service)
From the text: as §1, §2, §3

ERK1 = biological target: T19, ERK1 (Homo sapiens, UniProt P27361); conditions: 10 μM SCO-101, mean of assay duplicates, read-out: Kinase activity (percentage of DMSO control)
T19 construct: purchased MRC in Dundee (Premier Screen service)
T19 sequence (P27361 whole entry, species assumed): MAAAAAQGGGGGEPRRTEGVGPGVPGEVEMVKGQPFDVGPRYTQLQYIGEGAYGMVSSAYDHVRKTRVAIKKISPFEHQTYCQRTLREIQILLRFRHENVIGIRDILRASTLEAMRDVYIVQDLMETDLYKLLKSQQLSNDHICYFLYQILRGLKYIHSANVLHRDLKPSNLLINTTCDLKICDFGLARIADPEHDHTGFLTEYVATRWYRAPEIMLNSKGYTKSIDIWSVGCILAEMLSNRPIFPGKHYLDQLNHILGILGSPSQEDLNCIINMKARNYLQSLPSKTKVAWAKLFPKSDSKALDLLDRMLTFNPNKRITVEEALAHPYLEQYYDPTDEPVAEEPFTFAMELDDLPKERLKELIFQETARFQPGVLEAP
From the text: as §1, §2, §3

NEK6 = biological target: T20, NEK6 (Homo sapiens, UniProt Q9HC98); conditions: 10 μM SCO-101, mean of assay duplicates, read-out: Kinase activity (percentage of DMSO control)
T20 construct: MRC in Dundee (screening service)
From the text: as §1, §2, §3

p38d MAPK = p38d MAPK (Homo sapiens, UniProt O15264); conditions: 10 μM SCO-101, mean of assay duplicates, read-out: Kinase activity (percentage of DMSO control)
From the text: as §1, §2, §3

p38g MAPK = biological target: T21, p38g MAPK (Homo sapiens, UniProt P53778); conditions: 10 μM SCO-101, mean of assay duplicates, read-out: Kinase activity (percentage of DMSO control)
T21 construct: purchased MRC Dundee, Premier Screen (contract screening service)
From the text: as §1, §2, §3

HER4 = biological target: T22, HER4 (Homo sapiens, UniProt Q15303); conditions: 10 μM SCO-101, mean of assay duplicates, read-out: Kinase activity (percentage of DMSO control)
T22 construct: MRC Dundee (screening service)
From the text: as §1, §2, §3

MAPKAP-K2 = biological target: T23, MAPKAP-K2 (Homo sapiens, UniProt P49137); conditions: 10 μM SCO-101, mean of assay duplicates, read-out: Kinase activity (percentage of DMSO control)
T23 construct: MRC Dundee (screening service)
From the text: as §1, §2, §3

CK1γ2 = biological target: T24, CK1γ2 (Homo sapiens, UniProt P78368); conditions: 10 μM SCO-101, mean of assay duplicates, read-out: Kinase activity (percentage of DMSO control)
T24 construct: purchased MRC Dundee, Premier Screen (contract screening service)
From the text: as §1, §2, §3

TTK = biological target: T25, TTK (Homo sapiens, UniProt P33981); conditions: 10 μM SCO-101, mean of assay duplicates, read-out: Kinase activity (percentage of DMSO control)
T25 construct: MRC in Dundee (screening service)
From the text: as §1, §2, §3

MNK1 = biological target: T26, MNK1 (Homo sapiens, UniProt Q9BUB5); conditions: 10 μM SCO-101, mean of assay duplicates, read-out: Kinase activity (percentage of DMSO control)
T26 construct: MRC in Dundee (screening service)
From the text: as §1, §2, §3

EPH-A2 = biological target: T27, EPH-A2 (Homo sapiens, UniProt P29317); conditions: 10 μM SCO-101, mean of assay duplicates, read-out: Kinase activity (percentage of DMSO control)
T27 construct: purchased MRC in Dundee (Premier Screen service)
From the text: as §1, §2, §3

MKK2 = biological target: T28, MKK2 (Homo sapiens, UniProt P36507); conditions: 10 μM SCO-101, mean of assay duplicates, read-out: Kinase activity (percentage of DMSO control)
T28 construct: MRC in Dundee (screening service)
T28 sequence (P36507 whole entry, species assumed): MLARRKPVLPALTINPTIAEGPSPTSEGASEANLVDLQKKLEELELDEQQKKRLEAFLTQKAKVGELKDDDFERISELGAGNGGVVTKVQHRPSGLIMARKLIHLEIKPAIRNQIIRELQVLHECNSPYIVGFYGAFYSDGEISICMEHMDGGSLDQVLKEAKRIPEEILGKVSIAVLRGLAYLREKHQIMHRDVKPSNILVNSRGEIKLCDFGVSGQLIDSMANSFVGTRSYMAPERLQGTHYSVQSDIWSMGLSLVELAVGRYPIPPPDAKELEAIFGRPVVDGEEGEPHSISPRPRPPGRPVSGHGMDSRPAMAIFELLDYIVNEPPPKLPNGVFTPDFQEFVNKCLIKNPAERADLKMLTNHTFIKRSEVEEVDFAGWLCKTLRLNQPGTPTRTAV
From the text: as §1, §2, §3

PDK1 = biological target: T29, PDK1 (Homo sapiens, UniProt O15530); conditions: 10 μM SCO-101, mean of assay duplicates, read-out: Kinase activity (percentage of DMSO control)
T29 construct: purchased MRC Dundee, Premier Screen (contract screening service)
From the text: as §1, §2, §3

EF2K = biological target: T30, EF2K (Homo sapiens, UniProt O00418); conditions: 10 μM SCO-101, mean of assay duplicates, read-out: Kinase activity (percentage of DMSO control)
T30 construct: MRC Dundee (screening service)
From the text: as §1, §2, §3

MINK1 = biological target: T31, MINK1 (Homo sapiens, UniProt Q8N4C8); conditions: 10 μM SCO-101, mean of assay duplicates, read-out: Kinase activity (percentage of DMSO control)
T31 construct: purchased MRC in Dundee (Premier Screen service)
From the text: as §1, §2, §3

T1 sequence (P04629 33-796, species assumed): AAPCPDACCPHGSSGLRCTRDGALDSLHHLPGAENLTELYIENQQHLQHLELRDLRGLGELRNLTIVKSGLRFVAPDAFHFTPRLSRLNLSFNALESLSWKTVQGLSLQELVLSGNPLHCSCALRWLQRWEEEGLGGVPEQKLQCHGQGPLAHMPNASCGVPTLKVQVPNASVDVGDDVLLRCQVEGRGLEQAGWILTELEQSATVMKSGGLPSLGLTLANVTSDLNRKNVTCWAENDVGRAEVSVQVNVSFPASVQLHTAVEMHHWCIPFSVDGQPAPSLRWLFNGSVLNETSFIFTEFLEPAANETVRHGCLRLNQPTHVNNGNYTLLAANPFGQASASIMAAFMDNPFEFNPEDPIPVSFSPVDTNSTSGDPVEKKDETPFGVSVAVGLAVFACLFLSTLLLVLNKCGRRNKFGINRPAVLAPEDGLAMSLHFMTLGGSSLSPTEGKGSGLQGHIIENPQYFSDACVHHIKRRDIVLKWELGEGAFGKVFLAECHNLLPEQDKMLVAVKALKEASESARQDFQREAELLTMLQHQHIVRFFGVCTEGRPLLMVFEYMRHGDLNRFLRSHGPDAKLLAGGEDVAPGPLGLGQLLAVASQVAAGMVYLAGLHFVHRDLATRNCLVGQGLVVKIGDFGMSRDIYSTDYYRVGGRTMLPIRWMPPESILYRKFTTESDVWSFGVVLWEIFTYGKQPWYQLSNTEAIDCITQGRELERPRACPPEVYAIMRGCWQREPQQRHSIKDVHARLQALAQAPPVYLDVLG

O=C(Nc1cc(C(F)(F)F)cc(C(F)(F)F)c1)Nc1ccc(Br)cc1-c1nnn[nH]1 [SCO-101]
remaining activity at 10 µM (TrkA): 25%
remaining activity at 10 µM (PDGFRA): 62%
remaining activity at 10 µM (IKKb): 99%
remaining activity at 10 µM (MARK4): 90%
Kinase activity (percentage of DMSO control) (TAO1): 116 percentage of DMSO control
remaining activity at 10 µM (Aurora B): 61%
remaining activity at 10 µM (WNK1): 105%
remaining activity at 10 µM (MARK2): 100%
remaining activity at 10 µM (CDK2-Cyclin A): 113%
remaining activity at 10 µM (JNK2): 105%
Kinase activity (percentage of DMSO control) (PHK): 88 percentage of DMSO control
remaining activity at 10 µM (EPH-A4): 101%
remaining activity at 10 µM (PKCγ): 97%
remaining activity at 10 µM (PKCz): 101%
remaining activity at 10 µM (PIM3): 49%
remaining activity at 10 µM (Aurora A): 94%
remaining activity at 10 µM (HIPK2): 139%
remaining activity at 10 µM (OSR1): 94%
remaining activity at 10 µM (ERK8): 93%
remaining activity at 10 µM (PKA): 106%
remaining activity at 10 µM (MPSK1): 115%
remaining activity at 10 µM (IGF-1R): 128%
remaining activity at 10 µM (ERK1): 137%
remaining activity at 10 µM (NEK6): 90%
remaining activity at 10 µM (p38d MAPK): 113%
remaining activity at 10 µM (p38g MAPK): 110%
remaining activity at 10 µM (HER4): 98%
remaining activity at 10 µM (MAPKAP-K2): 100%
remaining activity at 10 µM (CK1γ2): 109%
remaining activity at 10 µM (TTK): 88%
remaining activity at 10 µM (MNK1): 91%
remaining activity at 10 µM (EPH-A2): 60%
remaining activity at 10 µM (MKK2): 94%
remaining activity at 10 µM (PDK1): 108%
remaining activity at 10 µM (EF2K): 95%
remaining activity at 10 µM (MINK1): 173%
